Assay: denaturation accompanied by genepin treatment, study at the University of Pennsylvania (FIG. 6)
Settings: versus denatured collagenous tissue without genepin treatment
From the text: Referring to FIGS. 5A-C, a denatured collagenous tissue mass exposed to genepin (371) is depicted. […] The result is a partial recovery or recreation of the mechanical properties of collagenous tissue to the state that they were prior to denaturation. […] Referring to FIG. 6, this has been experimentally confirmed in a study at the University of Pennsylvania, as directed by the inventors of the subject invention.

SMILES: COC(=O)C1=CO[C@@H](O)[C@@H]2C(CO)=CC[C@H]12 [genepin]
- susceptibility to creep deformation of denatured collagenous tissue: less susceptible to creep deformation

Source: US8926603B2, “System and method for denaturing and fixing collagenous tissue” (Hansen Medical, Inc., priority 2004, dated 2015)
